Earlier results, collected in patent publication US9272011B2, “Pharmaceutical composition for treating urinary incontinence and enuresis” (LABORATEC, S.L., priority 2012, dated 2016).

Tested on: enuresis
Conditions: enuresis therapy, literature studies

Structure (SMILES): CN(C)CCCN1c2ccccc2CCc2ccccc21 [Imipramine]
- response rate: approximately 50%
